# Experimental data taken from patent publication US20180346920A1, “Mutations Conferring Acetyl-Coa Carboxylase (ACC) Inhibiting Herbicide Tolerance in Sorghum” (Chromatin, Inc., priority 2017, published 2018).
# What was measured:
# [1] = test system: sorghum (Inbred BTX430) calli; test: Kill curve experiment on sorghum calli; format: cell-based, Sorghum bicolor; settings: 0.2 uM concentration; three week old BTX430 calli
# Method: Callus production from the isolation of immature embryos (IEs) was accomplished by removing immature seeds from greenhouse grown sorghum (Inbred BTX430) panicles approximately 14 days after anthesis and surface sterilized in ethanol followed by a bleach solution and then washed in sterilized water. Immature embryos were isolated from seeds and transferred to medium with 20 IEs per plate. Cultures were grown for two weeks at (28° C.). All explants which produced somatic embryogenic calli were transferred to growth medium and cultured for an additional 4-6 days at 28° C. Explants were transferred to fresh media every three weeks until the entire callus turned into compact and friable green callus. Three weeks old freshly subcultured calli were used for the experiment
# The herbicide active ingredient molecule of ACC herbicide Assure II (Quizalofop-p-ethyl) was used for screening and selection process. For identifying the optimum concentration for screening, a kill curve experiment with concentrations ranging from 0.05 to 1.0 μM of a.i. molecules were tested. Three week old calli were cut into small pieces of 4-5 mm dia and 25 pieces were tested in three replications for each concentration. Concentrations used were: 0.05, 0.1, 0.2, 0.3, 0.4, 0.5 and 1 μM Quizalofop p-ethyl. […]
# [2] = test system: FOP herbicide resistant calli (FP-1 to FP-19); test: Resistant calli tested on higher herbicide concentrations in culture medium; format: cell-based, Sorghum bicolor
# Method: The herbicide active ingredient molecule of ACC herbicide Assure II (Quizalofop-p-ethyl) was used for screening and selection process. For identifying the optimum concentration for screening, a kill curve experiment with concentrations ranging from 0.05 to 1.0 μM of a.i. molecules were tested. Three week old calli were cut into small pieces of 4-5 mm dia and 25 pieces were tested in three replications for each concentration. Concentrations used were: 0.05, 0.1, 0.2, 0.3, 0.4, 0.5 and 1 μM Quizalofop p-ethyl. As 50% of calli were killed at 0.2 uM concentration, the following selection criteria was followed for entire screening process. Selection process was started with 0.05 um and doubled the concentration for every 3 weeks and the calli surviving on 1.0 uM was considered as resistant calli.
# For the chemical mutagenesis, two chemical mutagens Ethyl methanesulfonate (EMS) (0.25 and 0.5%) and Sodium azide (0.5 and 1.0 uM) were used. These mutagens at specified concentration were directly added into the culture media. The calli pieces were first cultured on the media containing the mutagens for 6 and 12 hrs and then transferred to the above mentioned selection procedure. A total of 16 experiments were conducted with varying amount of calli pieces. After 21 to 24 weeks of selection, the surviving calli were considered as herbicide resistant calli. […]
compound,measurement,setting,value
CCOC(=O)[C@@H](C)Oc1ccc(Oc2cnc3cc(Cl)ccc3n2)cc1 [Quizalofop-p-ethyl],calli killed,[1],50%
same,survival of FOP resistant calli,"[2]; 100 μM, FP-7, FP-8, FP-9, FP-10, FP-13, FP-15",surviving
same,growth of FOP herbicide resistant calli on tissue culture medium,"[2]; FP-13, 1, 1.5, 2, 5, 10 μM",growing
